Test results: publication PMC12543283, “TastepepAI: An artificial intelligence platform for taste peptide de novo design” (PLOS Computational Biology, 2025)
Ends that are not written are not given here.

Tests used:
[1] = system: human embryonic kidney cells (HEK293T)
Description: The cytotoxicity of 73 synthetic peptides was evaluated using four human cell lines: human pancreatic ductal epithelial cells (HPNE), human embryonic kidney cells (HEK293T), human umbilical vein endothelial cells (HUVEC), and human bronchial epithelial cells (BEAS-2B). When cell density reached 70% confluence, the complete culture medium was replaced with serum-free maintenance medium, and peptides were added at a final concentration of 100 μM for 36 h. Control groups received only serum-free maintenance medium without peptides. Cell proliferation was assessed using the CCK-8 assay kit (Solarbio, CA1210) according to the manufacturer’s instructions.

[2] = system: human pancreatic ductal epithelial cells (HPNE)
[3] = system: human umbilical vein endothelial cells (HUVEC)
[4] = Electronic tongue analysis (Taste-Sensing System SA 402B); design: unit not given here; details: reference solution 30 mM KCl + 0.3 mM tartaric acid as baseline, first measurement excluded; for Umami: sensor AAE; for Umami / Bitter / Sweet: detection threshold 0, room temperature; for Umami / Bitter / Sour / Salty: four replicates; for Sour: detection threshold -13, room temperature; for Salty: detection threshold -6, room temperature; for Sweet: measured five times
Procedure, shortened: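 Samples were tested at 0.1 and 1.0 mg/mL on an SA 402B e-tongue fitted with sourness, saltiness, bitterness, sweetness and umami sensors, with 30 mM KCl/0.3 mM tartaric acid as reference and baseline. Thresholds were −13 for sour, −6 for salty and 0 for the rest. Runs at room temperature: four replicates, five for sweetness, first reading discarded.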

[5] = system: human bronchial epithelial cells (BEAS-2B)

Row | Substance | Average cell viability, HEK293T [1] | Cell viability, HEK293T, Data1 [1] | Cell viability, HEK293T, Data2 [1] | Cell viability, HEK293T, Data3 [1] | Average cell viability, HPNE [2] | Cell viability, HPNE, Data1 [2] | Cell viability, HPNE, Data2 [2] | Cell viability, HPNE, Data3 [2] | Average cell viability, HUVEC [3] | Cell viability, HUVEC, Data1 [3] | Cell viability, HUVEC, Data2 [3] | Cell viability, HUVEC, Data3 [3] | Umami ([4]; peptide 0.1 mg/mL) | Umami ([4]; peptide 1 mg/mL) | Bitter ([4]; sensor C00, peptide 0.1 mg/mL) | Bitter ([4]; sensor C00, peptide 1 mg/mL) | Sour ([4]; sensor CA0, peptide 0.1 mg/mL) | Sour ([4]; sensor CA0, peptide 1 mg/mL) | Salty ([4]; sensor CT0, peptide 0.1 mg/mL) | Salty ([4]; sensor CT0, peptide 1 mg/mL) | further results
1 | EVGMQE [TaPep56] | 101.26 | 104.86 | 101.55 | 97.38 | 104.53 | 109.42 | 91.95 | 112.21 | 106.36 | 96.04 | 108.89 | 114.16 | 2.28 | -4.04 | 7.18 | 3.33 | -4.96 | 9.59 | -21.19 | 6.57 | Sweet ([4]; sensor GL1, peptide 0.1 mg/mL): 7.84; Sweet ([4]; sensor GL1, peptide 1 mg/mL): -7.49; Average cell viability, BEAS-2B [5]: 108.94; Cell viability, BEAS-2B, Data1 [5]: 97.91; Cell viability, BEAS-2B, Data2 [5]: 109.67; Cell viability, BEAS-2B, Data3 [5]: 119.24
2 | EDGPHGD [TaPep45] | 97.35 | 98.99 | 96.25 | 96.81 | 101.66 | 107.42 | 100.73 | 96.84 | 98.64 | 103.46 | 90.77 | 101.70 | 0.96 | -5.11 | 7.77 | 4.03 | -1.77 | 12.61 | -19.03 | 9.35 | Sweet ([4]; sensor GL1, peptide 0.1 mg/mL): 4.54; Sweet ([4]; sensor GL1, peptide 1 mg/mL): -4.05; Average cell viability, BEAS-2B [5]: 94.75; Cell viability, BEAS-2B, Data1 [5]: 89.83; Cell viability, BEAS-2B, Data2 [5]: 99.50; Cell viability, BEAS-2B, Data3 [5]: 94.92
3 | LGDDLVK [TaPep19] | 106.88 | 110.63 | 106.37 | 103.63 | 100.07 | 102.93 | 114.51 | 82.76 | 102.69 | 92.52 | 103.78 | 111.76 | 2.00 | -4.34 | 7.19 | 3.19 | -4.23 | 10.91 | -21.50 | 8.70 | Sweet ([4]; sensor GL1, peptide 0.1 mg/mL): 6.20; Sweet ([4]; sensor GL1, peptide 1 mg/mL): -4.08; Average cell viability, BEAS-2B [5]: 111.70; Cell viability, BEAS-2B, Data1 [5]: 111.27; Cell viability, BEAS-2B, Data2 [5]: 110.77; Cell viability, BEAS-2B, Data3 [5]: 113.06
4 | DFKEELPK [TaPep42] | 100.35 | 101.45 | 95.30 | 104.29 | 106.29 | 109.92 | 101.63 | 107.32 | 100.96 | 109.77 | 97.95 | 95.16 | 0.30 | -6.40 | 7.41 | 2.96 | -0.03 | 16.30 | -15.26 | 15.72 | Sweet ([4]; sensor GL1, peptide 0.1 mg/mL): 3.04; Sweet ([4]; sensor GL1, peptide 1 mg/mL): -6.66; Average cell viability, BEAS-2B [5]: 106.12; Cell viability, BEAS-2B, Data1 [5]: 95.21; Cell viability, BEAS-2B, Data2 [5]: 103.99; Cell viability, BEAS-2B, Data3 [5]: 119.14
5 | ESKDQ [TaPep55] | 98.14 | 94.73 | 101.07 | 98.61 | 94.61 | 105.92 | 82.36 | 95.54 | 102.82 | 107.29 | 96.11 | 105.06 | 1.27 | -4.53 | 7.76 | 2.75 | -2.34 | 11.12 | -19.80 | 11.30 | Sweet ([4]; sensor GL1, peptide 0.1 mg/mL): 5.21; Sweet ([4]; sensor GL1, peptide 1 mg/mL): -7.81; Average cell viability, BEAS-2B [5]: 109.14; Cell viability, BEAS-2B, Data1 [5]: 112.96; Cell viability, BEAS-2B, Data2 [5]: 98.40; Cell viability, BEAS-2B, Data3 [5]: 116.05
